Measurements published in US6949648B2, “Condensed pyrazole derivatives, process for producing the same and use thereof” (Takeda Pharmaceutical Company Limited, priority 2000, dated 2005).

SMILES | melting point
Cc1nn(-c2ccccn2)c2[nH]c3c(Cl)cc(Cl)cc3c(=O)c12 [Example 2-77, 6,8-Dichloro-3-methyl-1-(2-pyridinyl)-1,9-dihydro-4H-pyrazolo[3,4-b]quinolin-4-one] | 288 to 289 °C
Cc1nn(-c2ccccn2)c2ncc(C(=O)Nc3ccccc3)c(O)c12 [Example 1-11, 4-Hydroxy-3-methyl-N-phenyl-1-(2-pyridinyl)-1H-pyrazolo[3,4-b]pyridine-5-carboxamide] | > 300 °C
Cc1nn(-c2ccncc2)c2[nH]c3ccccc3c(=O)c12 [Example 2-143, 3-Methyl-1-(4-pyridinyl)-1,9-dihydro-4H-pyrazolo[3,4-b]quinolin-4-one] | > 300 °C
O=c1c2cnn(-c3ccccn3)c2[nH]c2cccc(F)c12 [Example 2-163, 5-Fluoro-1-(2-pyridinyl)-1,9-dihydro-4H-pyrazolo[3,4-b]quinolin-4-one] | 278 to 281 °C
Cc1nn(-c2ccccn2)c2ncc(C(=O)c3ccccc3)c(O)c12 [Example 1-4, [4-Hydroxy-3-methyl-1-(2-pyridinyl)-1H-pyrazolo[3,4-b]pyridin-5-yl]phenylmethanone] | 224 to 226 °C
COc1ccc2[nH]c3c(c(C)nn3-c3ccccn3)c(=O)c2c1 [Example 2-43, 6-Methoxy-3-methyl-1-(2-pyridinyl)-1,9-dihydro-4H-pyrazolo[3,4-b]quinolin-4-one] | 227 to 229 °C
COC(=O)Cc1nn(-c2ccccn2)c2nc3ccccc3c(Cl)c12 [Example 2-175, Methyl 2-[4-chloro-1-(2-pyridinyl)-1H-pyrazolo[3,4-b]quinolin-3-yl]acetate] | 152 to 153 °C
Fc1cccc2nc3c(cnn3-c3ccccn3)c(Cl)c12 [Example 2-162, 4-Chloro-5-fluoro-1-(2-pyridinyl)-1H-pyrazolo[3,4-b]quinoline] | 173 to 176 °C
Cc1nn(-c2ccccn2)c2nc3ccsc3c(Cl)c12 [Example 2-155, 4-Chloro-3-methyl-1-(2-pyridinyl)-1H-pyrazolo[3,4-b]thieno[2,3-e]pyridine] | 230 to 231 °C
Cc1nn(-c2ccccn2)c2[nH]c3cc(F)c(F)cc3c(=O)c12.O (hydrate or solvate) [Example 2-92, 6,7-Difluoro-3-methyl-1-(2-pyridinyl)-1,9-dihydro-4H-pyrazolo[3,4-b]quinolin-4-one monohydrate] | 273 to 275 °C
Cc1nn(-c2ccccn2)c2[nH]c3ccc(S(C)(=O)=O)cc3c(=O)c12 [Example 2-52, 3-Methyl-6-(methylsulfonyl)-1-(2-pyridinyl)-1,9-dihydro-4H-pyrazolo[3,4-b]quinolin-4-one] | > 300 °C

Other lines, results leading:

melting point | SMILES
176 to 178 °C | Cc1cccnc1-n1nc(C)c2c(Cl)c3c(C)cccc3nc21 [Example 2-123, 4-Chloro-3,5-dimethyl-1-(3-methyl-2-pyridinyl)-1H-pyrazolo[3,4-b]quinoline]
165 to 168 °C | Cc1ccc(-n2nc(C)c3c(Cl)c4cccc(C)c4nc32)nc1 [Example 2-131, 4-Chloro-3,8-dimethyl-1-(5-methyl-2-pyridinyl)-1H-pyrazolo[3,4-b]quinoline]
154 °C | Cc1cccc(-n2nc(C)c3c(Cl)c4ccccc4nc32)n1 [Example 2-207, 4-Chloro-3-methyl-1-(6-methyl-2-pyridinyl)-1H-pyrazolo[3,4-b]quinoline]
197 to 200 °C | Cc1ccc(-n2nc(C)c3c(Cl)c4ccccc4nc32)nc1 [Example 2-115, 4-Chloro-3-methyl-1-(5-methyl-2-pyridinyl)-1H-pyrazolo[3,4-b]quinoline]
167 to 169 °C | Cc1cccc2nc3c(c(C)nn3-c3ccccn3)c(Cl)c12 [Example 2-29, 4-Chloro-3,5-dimethyl-1-(2-pyridinyl)-1H-pyrazolo[3,4-b]quinoline]
158 to 160 °C | Cc1ccc2nc3c(c(C)nn3-c3ccccn3)c(Cl)c2c1 [Example 2-32, 4-Chloro-3,6-dimethyl-1-(2-pyridinyl)-1H-pyrazolo[3,4-b]quinoline]
